{"source": "paper PMC12691742", "about": "“Anti-Cancer Outcome of Glucocorticoid Receptor Transrepression by Synephrine Derivatives in Hematological Malignancies” (International Journal of Molecular Sciences, 2025)", "key": {"[1]": {"biological_target": "T1, GR (Homo sapiens, UniProt P04150)", "T1 construct": "endogenous in cells; host or cells: K562", "T1 sequence (P04150 1-777)": "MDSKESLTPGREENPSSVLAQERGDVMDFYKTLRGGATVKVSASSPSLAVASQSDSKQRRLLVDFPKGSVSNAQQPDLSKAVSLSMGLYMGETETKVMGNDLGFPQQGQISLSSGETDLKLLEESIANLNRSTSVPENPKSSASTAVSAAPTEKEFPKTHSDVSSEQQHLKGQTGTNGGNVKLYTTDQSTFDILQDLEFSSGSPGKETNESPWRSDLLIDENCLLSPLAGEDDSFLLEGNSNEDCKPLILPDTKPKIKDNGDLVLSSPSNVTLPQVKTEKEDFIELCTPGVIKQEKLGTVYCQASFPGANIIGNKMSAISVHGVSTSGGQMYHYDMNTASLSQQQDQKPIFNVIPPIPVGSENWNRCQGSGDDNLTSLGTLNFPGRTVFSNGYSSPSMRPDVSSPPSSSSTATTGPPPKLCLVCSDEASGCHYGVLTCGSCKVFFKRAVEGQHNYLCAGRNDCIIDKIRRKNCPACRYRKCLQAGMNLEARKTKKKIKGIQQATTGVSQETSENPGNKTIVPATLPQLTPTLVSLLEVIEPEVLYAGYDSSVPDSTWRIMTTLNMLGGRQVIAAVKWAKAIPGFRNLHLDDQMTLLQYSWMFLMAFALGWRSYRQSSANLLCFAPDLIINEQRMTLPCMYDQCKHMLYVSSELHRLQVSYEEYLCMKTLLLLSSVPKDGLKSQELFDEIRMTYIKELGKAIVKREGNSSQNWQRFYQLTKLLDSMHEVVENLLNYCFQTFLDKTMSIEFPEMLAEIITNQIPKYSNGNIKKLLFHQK", "assay": "GR radioligand binding assay, competition with [3H]Dex in K562 cells", "method": "(A,B). […] The stability of the complex was simulated using molecular dynamics in the GROMACS program. (C) GR binding affinity was estimated using a radioligand binding assay. […] Cell lysate radioactivity was measured using a RackBeta 1215 LC (LKB Wallac, Turku, Finland) spectrometer for 4 min. […] The experiments were performed in triplicate (n = 3).\nAfter 90 min of incubation, the cells were washed twice by centrifugation in cold serum-free medium (1500 rpm, 5 min). The cells were then lysed with RIPA buffer (50 mM Tris (pH 8.0), 150 mM NaCl, 1 mM ethylenediaminetetraacetic acid, 0.1% sodium dodecyl sulfate, 0.5% sodium deoxycholate, 1% triton-X100, 10% glycerin, and protease inhibitor) for 20 min. Lysates were transferred to scintillation liquid, and radioactivity was measured using a RackBeta 1215 LC spectrometer for 4 min. […] IC50 was determined using GraphPad Prism software, Ver.7.0. […] “Top” meant the highest value in dpm and was equal to 100%, while the “bottom” was considered as the lowest value (0%). […] The IC50 values for each ligand were determined by plotting these curves. The experiments were performed in triplicate."}, "[2]": {"tested_on": "BALB/c female mice", "assay": "Glucocorticoid-induced osteoporosis model: bone and skin morphometry, body weight", "format": "in vivo", "settings": "Dex 20 mg/kg", "description": "(A) H&E bone staining and quantification of cortical bone thickness. (B) Q-PCR analysis of Rankl, Mmp9, Tsc2, Trap, and Bglap mRNA expression in bone tissue. […] (C) H&E skin staining and quantification of dermal adipose thickness (50 images per treatment group of 10 animals). Statistically significant differences compared to the control: * p < 0.05, ** p < 0.01.\nThe protocol for the experiment was approved by the local N.N. Blokhin National Medical Research Center Ethics Committee and corresponded to the guidelines for the welfare and use of animals in cancer research adopted by The United Kingdom Coordinating Committee on Cancer Prevention Research. […] Body weight was recorded twice a week for toxicity control.\nBone and skin samples from the GIOP experiment were fixed in formaldehyde and embedded in paraffin, and sections were stained with hematoxylin and eosin. After formaldehyde fixation, the bone samples were decalcified in decalcification buffer (0.5 M EDTA, 0.7 mM NaOH, pH7.0) for 14 days, washed twice with PBS, and further processed according to the standard histology protocol. The dermal adipose and bone thickness were quantified in sections stained with hematoxylin and eosin. At least five individual fields per slide of each sample/treatment (at least 50 images/treatment group) were analyzed using Axioplan2 microscope software (“Carl Zeiss”, Jena, Germany). The dermal adipose or bone thickness in treated animals is presented as a percentage of the control animals."}, "[3]": {"tested_on": "FKBP51, GILZ, DDIT4 mRNA expression in K562 and Granta cells", "assay": "Q-PCR of GR transactivation marker genes", "format": "cell-based", "settings": "4 h (FKBP51, GILZ) or 24 h (DDIT4); Dex 10 µM, 10S-E2 0.1 µM; vs control", "description": "Q-PCR results were confirmed by Western blot analysis of the level of GR phosphorylated by Ser211, known as a crucial protein modification for GR TA realization because of its binding to short cysteine-rich fragments of the coactivator CREB-binding protein [41].\nFigure 3 Effects of synephrine derivatives on GR transactivation in Granta lymphoma and K562 leukemia cells. (A) Q-PCR analysis of FKBP51, GILZ, and DDIT4 mRNA expression in K562 and Granta cells. […] The Q-PCR results were normalized to the expression of the housekeeping gene RPL27 and are presented as fold changes compared to the control. The mean ± SD was calculated for three individual samples/condition (n = 3). Statistically significant differences compared to the control: * p < 0.05, ** p < 0.01. (B) The levels of the nuclear fraction of phospho-GR (Ser211) were determined using Western blot analysis (n = 3; characteristic images are presented in the figure). Histone H3 was used as a loading control.\nTotal RNA isolation from cell cultures and murine bones, reverse transcription, and Q-PCR were performed as described in [36]. Primers were designed using NCBI Primer-BLAST https://www.ncbi.nlm.nih.gov/tools/primer-blast/, accessed on 25 August 2025 (Supplementary Table S1). Results were normalized to the expression of the housekeeping RPL27 и Rpl27 genes. The experiments were performed in triplicate."}, "[4]": {"settings": "i.p. every 24 h for 5 weeks, 10S-E2 10 mg/kg"}}, "note": "“Also recorded” adds a separate entry of the source.", "data": [{"smiles": "CCCCCCNCC(O)c1ccc(OCc2ccccc2)cc1", "note": "(stereo not drawn) [10S-E2, 1-[4-(benzyloxy)phenyl]-2-(hexylamino)ethanol]", "values": [{"measurement": "IC50", "setting": "[1]", "value": 560, "unit": "nM"}, {"measurement": "animal body weight vs control", "setting": "[2]; GIOP study, 10S-E2 10 mg/kg i.p. every 24 h for 5 weeks", "value": "no statisticall y si gnificant differences; also recorded: similar"}, {"measurement": "loss of cortical bone thickness", "setting": "[2]; [4]", "value": "did not cause any loss"}, {"measurement": "reduction of dermal adipose tissue / skin atrophy", "setting": "[2]; [4]", "value": "preserved the skin architecture"}, {"measurement": "expression of TA marker genes FKBP51, GILZ, DDIT4", "setting": "[3]", "value": "did not increase the expression"}]}]}
